Experimental findings from patent US11479546B2, “Antimalarial hexahydropyrimidine analogues” (UCB Biopharma SRL, priority 2018, dated 2022) are described below.

The structures appear in SMILES notation.

In this test the test system is Plasmodium falciparum 3D7. As to the kind of experiment: P. falciparum 3D7 asexual blood stage assay, Assay Procedure Version 1 (SYBR green readout). The test is classed as cell-based. The settings on record: 3D7, Erythrocyte, Version 1 of the assay procedure (no asterisk), 72 h incubation in infected erythrocytes, 10,000 nM to 0.51 nM. As for the experimental part:
Asexual Blood Stage Assay
The assay used to measure the effect of test compounds on a bloodstream stage of Plasmodium falciparum 3D7 strain employs SYBR green as the readout. This is a dye that binds to double stranded deoxyribonucleic acid (DNA) with a resulting increase in fluorescence, allowing detection of P. falciparum DNA in infected erythrocytes, and thereby providing a measure of parasite growth and propagation.
P. falciparum Culture Maintenance
Erythrocytes (A+blood) were prepared for both parasite culture and assay by washing 4 times with incomplete media (15.9 g RPMI 1640 (25 mM HEPES, L-glutamine), 1 g NaHCO3, 2 g glucose, 400 μL gentacin (500 mg/mL), 2 mL hypoxanthine solution (13.6 g/L in 0.1M NaOH pH 7.3) in 1 litre of media). The cells were centrifuged at 1800 g for 5 minutes, before decanting the supernatant and re-suspending in fresh incomplete media. On the final wash, the cells were re-suspended in complete media (incomplete media with 5 g/L AlbumaxII), and centrifuged at 1800 g for 3 minutes. This cell sediment was treated as 100% haematocrit.
P. falciparum 3D7 was cultured in erythrocytes at 5% haematocrit in complete media at 37° C. (1% O2, 3% CO2, balance N2). Cultures were split on a weekly basis to achieve a 1% parasitaemia in erythrocites at 5% haematocrit in fresh media. Culture media is replaced by fresh media every other day (2 times during the week).
Assay Procedure—Version 1
On day 1, test compounds were added to assay plates using Echo dispensing technology (3 fold dilution and 10 points titration). 50 nL of each compound dilution was added to 50 μL of culture (5% haematocrit, 0.5% parasitaemia) and incubated for 72 h at 37° C. (1% O2, 3% CO2, balance N2). Final concentrations of test compounds ranged from 10,000 nM to 0.51 nM, in […].
On day 4, 10 μL SYBR green (Invitrogen S7563 supplied as 10,000×concentrate in DMSO) pre-diluted to 3× concentrate with Lysis buffer (20 mM Tris pH 7.9, 5% EDTA, 0.16% w/v, 1.6% TX100 v/v) was added to the cultures and incubated in the dark, overnight, at room temperature.
On day 5, fluorescent signal was measured using a BioTek plate reader (excitation 485 nm, emission 528 nm). All data were processed using IDBS ActivityBase. Raw data were converted into percent inhibition through linear regression by setting the high inhibition control as 100% and the no inhibition control as 0%. Quality control criteria for passing plates were as follows: Z′>0.5, S:B>3, % CV(no inhibition control)<15. The formula used to calculate Z′ is
All EC50 curve fitting was undertaken using the following 4 parametric equation:
[formula] where A=% inhibition at bottom; B=% inhibition at top; C=EC50; D=slope; x=inhibitor concentration; and y=% inhibition. […] Assay Procedure—Version 2
Consider `C[C@@]1(c2cccc(Nc3cc(OC(F)(F)F)ccc3F)c2Cl)CC(=O)N(C2CCOCC2)C(=N)N1` [Example 22, (6S)-6-{2-Chloro-3-[2-fluoro-5-(trifluoromethoxy)anilino]-phenyl}-2-imino-6-methyl-3-(tetrahydropyran-4-yl)-hexahydropyrimidin-4-one], for which the IC50 – broadly, the concentration needed to halve the response being measured – is 1.52 µM.

`COc1cc(F)cc(Nc2cccc([C@]3(C)CC(=O)N(C4CCOCC4)C(=N)N3)c2Cl)c1` [Example 23, (6S)-6-[2-Chloro-3-(3-fluoro-5-methoxyanilino)phenyl]-2-imino-6-methyl-3-(tetrahydro-pyran-4-yl)hexahydropyrimidin-4-one]: the IC50 came out at 1.34 µM.

In turn, `C[C@@]1(c2cccc(Nc3ccc(C#N)c(Cl)c3)c2Cl)CC(=O)N(C2CCOCC2)C(=N)N1` [Example 24, 2-Chloro-4-{2-chloro-3-[(4S)-2-imino-4-methyl-6-oxo-1-(tetrahydropyran-4-yl)-hexahydropyrimidin-4-yl]-anilino}benzonitrile] came in with an IC50 of 1.67 µM.

On to `C[C@@]1(c2cccc(Nc3ccc(N4CCOCC4)nc3)c2Cl)CC(=O)N(C2CCOCC2)C(=N)N1` [Example 25, (6S)-6-(2-Chloro-3-{[6-(morpholin-4-yl)pyridin-3-yl]amino}phenyl)-2-imino-6-methyl-3-(tetrahydropyran-4-yl)hexahydropyrimidin-4-one], for which it took 0.821 µM to reach half-maximal inhibition (IC50).

With `C[C@@]1(c2cccc(Nc3cccnc3C(F)(F)F)c2Cl)CC(=O)N(C2CCOCC2)C(=N)N1` [Example 26, (6S)-6-(2-Chloro-3-{[2-(trifluoromethyl)pyridin-3-yl]amino}phenyl)-2-imino-6-methyl-3-(tetrahydropyran-4-yl)hexahydropyrimidin-4-one], half-maximal inhibition (IC50) was put at 0.331 µM.

Turning to `COc1ccc(F)cc1Nc1cccc([C@]2(C)CC(=O)N(C3CCOCC3)C(=N)N2)c1Cl` [Example 27, (6S)-6-[2-Chloro-3-(5-fluoro-2-methoxyanilino)phenyl]-2-imino-6-methyl-3-(tetrahydro-pyran-4-yl)hexahydropyrimidin-4-one], the IC50 came to 0.236 µM.

Molecule `Cc1ncccc1Nc1cccc([C@]2(C)CC(=O)N(C3CCOCC3)C(=N)N2)c1Cl` [Example 28, (6S)-6-{2-Chloro-3-[(2-methyl-pyridin-3-yl)amino]phenyl}-2-imino-6-methyl-3-(tetrahydro-pyran-4-yl)hexahydropyrimidin-4-one] returned a 50% inhibitory concentration (IC50) of 2.96 µM.

`C[C@@]1(c2cccc(Nc3ccnc(F)c3)c2Cl)CC(=O)N(C2CCOCC2)C(=N)N1` [Example 29, (6S)-6-{2-Chloro-3-[(2-fluoro-pyridin-4-yl)amino]phenyl}-2-imino-6-methyl-3-(tetrahydro-pyran-4-yl)hexahydropyrimidin-4-one] returned an IC50 of 0.539 µM.

As for `C[C@@]1(c2cccc(Nc3cnc4ccccc4c3)c2Cl)CC(=O)N(C2CCOCC2)C(=N)N1` [Example 30, (6S)-6-[2-Chloro-3-(quinolin-3-ylamino)phenyl]-2-imino-6-methyl-3-(tetrahydropyran-4-yl)hexahydropyrimidin-4-one], half-maximal inhibition (IC50) required 0.64 µM.

`C[C@@]1(c2cccc(Nc3ccc(C(F)(F)F)nc3)c2Cl)CC(=O)N(C2CCOCC2)C(=N)N1` [Example 31, (6S)-6-(2-Chloro-3-{[6-(trifluoromethyl)pyridin-3-yl]amino}phenyl)-2-imino-6-methyl-3-(tetrahydropyran-4-yl)hexahydropyrimidin-4-one] had an IC50 of 0.43 µM.

In turn, `C[C@@]1(c2cccc(Nc3cc(C(F)(F)F)cnc3Cl)c2Cl)CC(=O)N(C2CCOCC2)C(=N)N1` [Example 32, (6S)-6-(2-Chloro-3-{[2-chloro-5-(trifluoromethyl)pyridin-3-yl]amino}phenyl)-2-imino-6-methyl-3-(tetrahydropyran-4-yl)hexahydropyrimidin-4-one] had an IC50 of 0.851 µM.

The molecule `C[C@@]1(c2cccc(Nc3ccc(Cl)c(F)c3)c2Cl)CC(=O)N(C2CCOCC2)C(=N)N1` [Example 33, (6S)-6-[2-Chloro-3-(4-chloro-3-fluoroanilino)phenyl]-2-imino-6-methyl-3-(tetrahydropyran-4-yl)hexahydropyrimidin-4-one] registered an IC50 of 1.81 µM.

With `C[C@@]1(c2cccc(Nc3cc(Cl)cc(C#N)c3)c2Cl)CC(=O)N(C2CCOCC2)C(=N)N1` [Example 34, 3-Chloro-5-{2-chloro-3-[(4S)-2-imino-4-methyl-6-oxo-1-(tetrahydropyran-4-yl)-hexahydropyrimidin-4-yl]-anilino}benzonitrile], the IC50 is 0.79 µM.

The molecule `C[C@@]1(c2cccc(Nc3cn4ccccc4n3)c2Cl)CC(=O)N(C2CCOCC2)C(=N)N1` [Example 35, (6S)-6-[2-Chloro-3-(imidazo-[1,2-a]pyridin-2-ylamino)-phenyl]-2-imino-6-methyl-3-(tetrahydropyran-4-yl)-hexahydropyrimidin-4-one] yielded an IC50 of 2.38 µM.

With `C[C@@]1(c2cccc(Nc3ccccc3F)c2Cl)CC(=O)N(C2CCOCC2)C(=N)N1` [Example 36, (6S)-6-[2-Chloro-3-(2-fluoro-anilino)phenyl]-2-imino-6-methyl-3-(tetrahydropyran-4-yl)hexahydropyrimidin-4-one], half-maximal inhibition (IC50) was put at 2.9 µM.

Regarding `C[C@@]1(c2cccc(Nc3ccc(OC(F)F)cc3)c2Cl)CC(=O)N(C2CCOCC2)C(=N)N1` [Example 37, (6S)-6-{2-Chloro-3-[4-(difluoro-methoxy)anilino]phenyl}-2-imino-6-methyl-3-(tetrahydro-pyran-4-yl)hexahydropyrimidin-4-one], it took 1.15 µM to reach half-maximal inhibition (IC50).

`C[C@@]1(c2cccc(Nc3cc(F)c(F)cc3F)c2Cl)CC(=O)N(C2CCOCC2)C(=N)N1` [Example 38, (6S)-6-[2-Chloro-3-(2,4,5-trifluoroanilino)phenyl]-2-imino-6-methyl-3-(tetrahydro-pyran-4-yl)hexahydropyrimidin-4-one] had an IC50 of 0.811 µM.

Consider `C[C@@]1(c2cccc(Nc3ccc(S(C)(=O)=O)cc3)c2Cl)CC(=O)N(C2CCOCC2)C(=N)N1` [Example 39, (6S)-6-[2-Chloro-3-(4-methyl-sulfonylanilino)phenyl]-2-imino-6-methyl-3-(tetrahydro-pyran-4-yl)hexahydropyrimidin-4-one], for which it took 2.09 µM to reach half-maximal inhibition (IC50).

The molecule `C[C@@]1(c2cccc(Nc3ccc(C#N)nc3)c2Cl)CC(=O)N(C2CCOCC2)C(=N)N1` [Example 40, 5-{2-Chloro-3-[(4S)-2-imino-4-methyl-6-oxo-1-(tetrahydro-pyran-4-yl)hexahydropyrimidin-4-yl]anilino}pyridine-2-carbo-nitrile] registered an IC50 of 1.51 µM.

The molecule `C[C@@]1(c2cccc(Nc3cccc(S(C)(=O)=O)c3)c2Cl)CC(=O)N(C2CCOCC2)C(=N)N1` [Example 41, (6S)-6-[2-Chloro-3-(3-methyl-sulfonylanilino)phenyl]-2-imino-6-methyl-3-(tetrahydro-pyran-4-yl)hexahydropyrimidin-4-one] showed an IC50 of 1.95 µM.

`C[C@@]1(c2cccc(Nc3ccc(F)cc3F)c2Cl)CC(=O)N([C@H]2C[C@@](C)(O)C2)C(=N)N1` [Example 120, (6S)-6-[2-Chloro-3-(2,4-difluoroanilino)phenyl]-3-(3-hydroxy-3-methylcyclobutyl)-2-imino-6-methylhexahydro-pyrimidin-4-one]: it took 0.652 µM to reach half-maximal inhibition (IC50).

As for `C[C@@]1(c2cccc(Nc3ccc(C#N)c(F)c3)c2Cl)CC(=O)N([C@H]2C[C@@](C)(O)C2)C(=N)N1` [Example 121, 4-{2-Chloro-3-[(4S)-1-(3-hydroxy-3-methylcyclobutyl)-2-imino-4-methyl-6-oxo-hexahydropyrimidin-4-yl]-anilino}-2-fluorobenzonitrile], the IC50 was determined as 1.66 µM.

`COc1ccc(Nc2cccc([C@]3(C)CC(=O)N(C4CCOCC4)C(=N)N3)c2Cl)cc1` [Example 159, (6S)-6-[2-Chloro-3-(4-methoxy-anilino)phenyl]-2-imino-6-methyl-3-(tetrahydropyran-4-yl)hexahydropyrimidin-4-one]: half-maximal inhibition (IC50) required 2.27 µM.

Molecule `Cc1ccc(Nc2cccc([C@]3(C)CC(=O)N(C4CCOCC4)C(=N)N3)c2Cl)cc1` [Example 160, (6S)-6-[2-Chloro-3-(4-methyl-anilino)phenyl]-2-imino-6-methyl-3-(tetrahydropyran-4-yl)hexahydropyrimidin-4-one] had an IC50 of 1.69 µM.
